Test results reported in paper PMC8366453, “Efficacy of RyR2 inhibitor EL20 in induced pluripotent stem cell‐derived cardiomyocytes from a patient with catecholaminergic polymorphic ventricular tachycardia” (Journal of Cellular and Molecular Medicine, 2021).

Target: cardiac ryanodine receptor type‐2 (RyR2) (Homo sapiens, UniProt Q92736, R176Q)
Experiment: Confocal Ca2+ spark frequency dose-response in paced CPVT patient iPSC-derived cardiomyocytes (heterozygous R176Q)
Type: cell-based

Sequence of cardiac ryanodine receptor type‐2 (RyR2) (Q92736 whole entry R176Q): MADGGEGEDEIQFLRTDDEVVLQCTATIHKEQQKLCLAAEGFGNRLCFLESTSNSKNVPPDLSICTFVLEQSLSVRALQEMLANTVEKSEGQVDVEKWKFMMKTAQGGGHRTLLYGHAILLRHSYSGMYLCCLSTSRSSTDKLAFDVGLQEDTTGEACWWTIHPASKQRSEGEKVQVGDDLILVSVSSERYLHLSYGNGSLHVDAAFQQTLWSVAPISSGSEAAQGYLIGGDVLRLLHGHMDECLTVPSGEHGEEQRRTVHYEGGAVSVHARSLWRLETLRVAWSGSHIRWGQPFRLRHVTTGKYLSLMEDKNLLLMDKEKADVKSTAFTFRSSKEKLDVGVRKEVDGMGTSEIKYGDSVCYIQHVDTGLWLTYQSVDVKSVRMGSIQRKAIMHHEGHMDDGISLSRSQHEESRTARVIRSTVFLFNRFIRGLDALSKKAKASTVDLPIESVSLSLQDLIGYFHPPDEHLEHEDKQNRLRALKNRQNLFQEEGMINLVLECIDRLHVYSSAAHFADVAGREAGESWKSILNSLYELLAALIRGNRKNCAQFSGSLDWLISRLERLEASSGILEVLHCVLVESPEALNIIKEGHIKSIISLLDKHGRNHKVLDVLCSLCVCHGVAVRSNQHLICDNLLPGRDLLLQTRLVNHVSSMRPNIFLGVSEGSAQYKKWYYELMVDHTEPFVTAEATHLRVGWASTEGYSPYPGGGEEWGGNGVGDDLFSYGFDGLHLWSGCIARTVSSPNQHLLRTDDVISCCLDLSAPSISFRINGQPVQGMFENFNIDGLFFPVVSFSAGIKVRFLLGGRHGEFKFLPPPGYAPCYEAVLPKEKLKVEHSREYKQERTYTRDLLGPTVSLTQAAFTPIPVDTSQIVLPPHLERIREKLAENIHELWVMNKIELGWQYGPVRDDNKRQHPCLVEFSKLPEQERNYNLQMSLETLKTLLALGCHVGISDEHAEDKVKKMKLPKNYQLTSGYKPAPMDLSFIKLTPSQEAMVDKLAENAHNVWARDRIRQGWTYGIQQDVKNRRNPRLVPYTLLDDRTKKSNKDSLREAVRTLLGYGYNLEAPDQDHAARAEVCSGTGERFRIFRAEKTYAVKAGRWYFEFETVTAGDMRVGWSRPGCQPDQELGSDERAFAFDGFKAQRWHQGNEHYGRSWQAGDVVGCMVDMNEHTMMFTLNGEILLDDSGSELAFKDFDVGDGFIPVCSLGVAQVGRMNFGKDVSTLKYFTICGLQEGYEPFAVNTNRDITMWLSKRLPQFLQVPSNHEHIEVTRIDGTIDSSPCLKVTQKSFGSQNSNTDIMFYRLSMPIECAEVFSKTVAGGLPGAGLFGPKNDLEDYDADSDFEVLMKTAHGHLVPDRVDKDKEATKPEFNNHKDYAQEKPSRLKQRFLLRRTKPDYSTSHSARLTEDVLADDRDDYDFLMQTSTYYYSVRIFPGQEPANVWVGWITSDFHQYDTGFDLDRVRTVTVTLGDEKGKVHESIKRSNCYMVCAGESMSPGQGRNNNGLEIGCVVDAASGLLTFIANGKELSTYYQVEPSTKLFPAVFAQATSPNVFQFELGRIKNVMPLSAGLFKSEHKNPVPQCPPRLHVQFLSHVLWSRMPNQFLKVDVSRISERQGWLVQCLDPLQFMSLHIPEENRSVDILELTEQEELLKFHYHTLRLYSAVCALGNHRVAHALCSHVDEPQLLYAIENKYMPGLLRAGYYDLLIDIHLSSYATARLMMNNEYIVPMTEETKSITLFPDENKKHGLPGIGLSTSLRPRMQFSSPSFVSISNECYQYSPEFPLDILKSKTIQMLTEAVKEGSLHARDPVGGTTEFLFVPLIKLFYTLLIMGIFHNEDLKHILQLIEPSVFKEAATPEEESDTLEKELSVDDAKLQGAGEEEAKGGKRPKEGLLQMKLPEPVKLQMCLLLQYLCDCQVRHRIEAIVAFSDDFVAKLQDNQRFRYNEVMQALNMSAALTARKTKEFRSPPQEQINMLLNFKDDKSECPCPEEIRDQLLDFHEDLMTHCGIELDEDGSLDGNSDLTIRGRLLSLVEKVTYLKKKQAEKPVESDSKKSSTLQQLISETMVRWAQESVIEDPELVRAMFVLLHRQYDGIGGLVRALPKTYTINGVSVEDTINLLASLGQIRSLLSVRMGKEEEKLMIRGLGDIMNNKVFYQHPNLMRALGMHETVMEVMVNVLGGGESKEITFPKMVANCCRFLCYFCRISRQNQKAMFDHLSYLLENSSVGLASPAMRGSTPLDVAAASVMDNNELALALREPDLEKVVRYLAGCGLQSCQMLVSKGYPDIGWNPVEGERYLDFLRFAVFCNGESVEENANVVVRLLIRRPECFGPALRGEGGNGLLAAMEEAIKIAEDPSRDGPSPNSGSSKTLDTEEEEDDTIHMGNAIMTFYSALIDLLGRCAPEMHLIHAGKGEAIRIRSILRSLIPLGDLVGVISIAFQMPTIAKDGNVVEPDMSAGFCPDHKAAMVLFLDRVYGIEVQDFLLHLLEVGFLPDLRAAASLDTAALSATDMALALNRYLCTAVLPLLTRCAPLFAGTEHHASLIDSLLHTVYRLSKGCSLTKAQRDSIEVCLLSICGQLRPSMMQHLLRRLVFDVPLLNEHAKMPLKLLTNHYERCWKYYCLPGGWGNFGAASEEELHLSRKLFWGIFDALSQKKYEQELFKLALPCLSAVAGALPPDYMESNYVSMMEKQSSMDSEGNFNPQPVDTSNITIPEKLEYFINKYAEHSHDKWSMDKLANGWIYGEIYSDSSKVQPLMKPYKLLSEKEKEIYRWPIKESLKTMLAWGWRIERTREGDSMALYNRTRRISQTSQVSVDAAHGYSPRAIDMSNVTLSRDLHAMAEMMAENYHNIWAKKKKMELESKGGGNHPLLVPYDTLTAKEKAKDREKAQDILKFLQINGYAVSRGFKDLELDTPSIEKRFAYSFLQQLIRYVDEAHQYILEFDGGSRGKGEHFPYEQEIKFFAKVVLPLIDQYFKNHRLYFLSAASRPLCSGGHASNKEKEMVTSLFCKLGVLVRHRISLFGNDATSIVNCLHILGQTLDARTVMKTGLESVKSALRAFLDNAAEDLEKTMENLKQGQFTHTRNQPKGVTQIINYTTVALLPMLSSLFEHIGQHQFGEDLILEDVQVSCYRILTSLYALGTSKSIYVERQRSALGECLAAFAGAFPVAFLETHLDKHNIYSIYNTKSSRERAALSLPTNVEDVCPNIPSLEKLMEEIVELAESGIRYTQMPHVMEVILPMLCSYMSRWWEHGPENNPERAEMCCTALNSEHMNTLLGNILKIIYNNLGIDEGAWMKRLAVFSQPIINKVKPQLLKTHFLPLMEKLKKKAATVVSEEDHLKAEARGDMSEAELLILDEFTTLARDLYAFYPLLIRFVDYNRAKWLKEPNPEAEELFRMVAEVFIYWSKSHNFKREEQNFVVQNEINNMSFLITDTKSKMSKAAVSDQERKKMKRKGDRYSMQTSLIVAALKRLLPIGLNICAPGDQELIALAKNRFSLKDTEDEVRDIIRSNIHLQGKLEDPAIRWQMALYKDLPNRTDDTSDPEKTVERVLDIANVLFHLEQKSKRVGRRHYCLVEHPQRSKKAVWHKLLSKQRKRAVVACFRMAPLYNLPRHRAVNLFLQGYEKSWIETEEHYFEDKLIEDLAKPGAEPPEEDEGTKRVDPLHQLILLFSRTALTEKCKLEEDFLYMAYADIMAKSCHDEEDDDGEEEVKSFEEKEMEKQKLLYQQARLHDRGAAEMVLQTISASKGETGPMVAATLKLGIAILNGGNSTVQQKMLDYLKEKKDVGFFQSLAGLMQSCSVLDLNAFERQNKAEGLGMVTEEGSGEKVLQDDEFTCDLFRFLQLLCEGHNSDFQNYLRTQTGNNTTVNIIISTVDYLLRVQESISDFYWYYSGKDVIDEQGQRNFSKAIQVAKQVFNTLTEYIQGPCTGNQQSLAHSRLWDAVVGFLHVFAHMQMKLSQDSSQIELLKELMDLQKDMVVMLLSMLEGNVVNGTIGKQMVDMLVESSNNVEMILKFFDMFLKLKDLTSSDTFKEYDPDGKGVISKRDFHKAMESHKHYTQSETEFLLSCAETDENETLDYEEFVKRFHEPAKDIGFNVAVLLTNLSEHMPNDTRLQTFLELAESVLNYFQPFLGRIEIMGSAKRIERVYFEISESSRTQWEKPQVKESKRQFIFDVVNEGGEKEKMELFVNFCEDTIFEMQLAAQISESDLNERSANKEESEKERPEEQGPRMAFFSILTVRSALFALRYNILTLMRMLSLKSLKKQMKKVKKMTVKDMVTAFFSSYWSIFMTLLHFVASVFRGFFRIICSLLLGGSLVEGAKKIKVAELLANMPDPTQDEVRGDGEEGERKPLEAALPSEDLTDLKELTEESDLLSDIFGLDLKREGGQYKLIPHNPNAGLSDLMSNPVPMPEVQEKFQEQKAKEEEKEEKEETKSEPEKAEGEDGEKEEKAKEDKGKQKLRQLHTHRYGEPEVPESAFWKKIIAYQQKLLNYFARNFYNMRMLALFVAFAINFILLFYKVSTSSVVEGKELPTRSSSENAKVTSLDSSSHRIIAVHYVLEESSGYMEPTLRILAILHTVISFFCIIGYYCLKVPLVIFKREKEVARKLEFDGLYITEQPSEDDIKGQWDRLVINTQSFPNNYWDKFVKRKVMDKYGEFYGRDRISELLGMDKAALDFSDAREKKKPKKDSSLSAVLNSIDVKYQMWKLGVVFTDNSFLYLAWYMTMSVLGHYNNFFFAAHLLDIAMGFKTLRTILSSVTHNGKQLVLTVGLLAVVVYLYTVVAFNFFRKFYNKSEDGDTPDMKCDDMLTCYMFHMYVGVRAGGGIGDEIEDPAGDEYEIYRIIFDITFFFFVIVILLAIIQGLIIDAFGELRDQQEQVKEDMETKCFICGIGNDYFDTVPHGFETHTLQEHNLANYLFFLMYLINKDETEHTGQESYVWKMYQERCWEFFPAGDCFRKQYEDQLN

CCCCNc1ccc(C(=O)OCCN(CC)CC)c(OC)c1 [EL20]
IC50: 82 nM
